Source: patent US8658604B2, “Template-fixed beta-hairpin peptidomimetics with protease inhibitory activity” (Polyphor Ltd, priority 2005, dated 2014)
Where a SMILES comes first, the peptide text is derived from it.

How the values were obtained:
HELA cells (Acc57) = test: Cytotoxicity assay (MTT reduction), HELA cells; assay type: cell-based; settings: Hela cells
In short: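 HeLa cells were grown for 24 h, then exposed to peptides at 12.5, 25 and 50 μM in triplicate for 48 h at 37 °C. MTT reduction was read at 595 nm and growth % calculated relative to time-zero wells. LC50 interpolated by linear trend at −50% growth, GI50 at 50%.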

[1] = target: T1, CathepsinG, from human neutrophils (Homo sapiens, UniProt P08311)
T1 sequence (P08311 21-244): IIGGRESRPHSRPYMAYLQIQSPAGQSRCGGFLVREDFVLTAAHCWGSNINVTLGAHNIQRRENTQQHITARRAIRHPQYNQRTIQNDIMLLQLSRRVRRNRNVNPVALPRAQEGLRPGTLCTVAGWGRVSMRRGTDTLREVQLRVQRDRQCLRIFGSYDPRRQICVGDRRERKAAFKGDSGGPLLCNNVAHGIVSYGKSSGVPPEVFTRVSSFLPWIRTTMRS

[2] = target: Coagulation Factor Xa, from uman plasma (Homo sapiens, UniProt P00742)
Coagulation Factor Xa, from uman plasma, sequence (P00742 235-488 limits assumed): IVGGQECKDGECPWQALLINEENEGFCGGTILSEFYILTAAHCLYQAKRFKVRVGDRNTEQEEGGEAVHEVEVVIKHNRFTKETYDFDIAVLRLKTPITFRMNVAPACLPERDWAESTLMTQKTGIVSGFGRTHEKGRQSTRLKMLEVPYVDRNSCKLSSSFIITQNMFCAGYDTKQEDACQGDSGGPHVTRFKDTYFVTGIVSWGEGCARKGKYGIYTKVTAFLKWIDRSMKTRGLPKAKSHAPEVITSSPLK
Coagulation Factor Xa, from uman plasma, sequence (P00742 41-179 limits assumed): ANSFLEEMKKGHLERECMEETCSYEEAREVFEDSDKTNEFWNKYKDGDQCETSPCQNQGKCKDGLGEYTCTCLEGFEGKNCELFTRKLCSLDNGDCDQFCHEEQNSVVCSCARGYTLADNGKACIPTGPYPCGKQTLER

[3] = target: T2, Chymotrypsin, from human pancreas (Homo sapiens, UniProt P17538); test: Enzymatic assay, chymotrypsin
T2 sequence (P17538 19-263): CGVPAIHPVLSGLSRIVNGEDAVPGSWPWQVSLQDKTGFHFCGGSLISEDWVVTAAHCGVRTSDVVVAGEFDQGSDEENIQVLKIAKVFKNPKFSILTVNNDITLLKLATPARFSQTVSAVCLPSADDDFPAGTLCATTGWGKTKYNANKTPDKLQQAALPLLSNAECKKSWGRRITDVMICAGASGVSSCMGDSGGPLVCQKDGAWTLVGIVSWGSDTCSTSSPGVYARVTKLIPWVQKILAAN

[4] = target: Thrombin, from Human Plasma (Homo sapiens, UniProt P00734)
[5] = target: T3, Elastase from human neutrophils (Homo sapiens, UniProt P08246); test: Enzymatic assay, elastase; settings: Elastase IC50
T3 sequence (P08246 30-267): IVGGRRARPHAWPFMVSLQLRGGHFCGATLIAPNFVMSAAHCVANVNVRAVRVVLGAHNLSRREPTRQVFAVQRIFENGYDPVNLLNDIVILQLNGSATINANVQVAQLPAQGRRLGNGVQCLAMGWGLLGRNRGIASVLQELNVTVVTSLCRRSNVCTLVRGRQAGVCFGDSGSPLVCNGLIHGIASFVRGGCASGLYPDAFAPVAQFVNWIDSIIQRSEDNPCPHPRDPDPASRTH

[6] = target: T1, CathepsinG, from human neutrophils; test: Enzymatic assay, cathepsin G; settings: Cathepsin G IC50
[7] = target: T2, Chymotrypsin, from human pancreas
[8] = test system: Tryptase, from human lung; test: Enzymatic assay, tryptase; settings: at 100 μM
[9] = target: Urokinase from human urine (Homo sapiens, UniProt P00749)
Chymase, from human skin = target: T4, Chymase, from human skin (Homo sapiens, UniProt P23946)
T4 sequence (P23946 22-247): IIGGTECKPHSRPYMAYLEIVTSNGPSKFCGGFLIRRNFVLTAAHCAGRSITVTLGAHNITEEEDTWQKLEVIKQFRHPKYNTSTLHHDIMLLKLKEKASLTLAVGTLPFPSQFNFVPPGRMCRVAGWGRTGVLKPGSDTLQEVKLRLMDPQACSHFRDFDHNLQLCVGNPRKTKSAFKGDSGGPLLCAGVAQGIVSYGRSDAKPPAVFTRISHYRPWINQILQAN

[10] = target: Trypsin, from human pancreas (Homo sapiens, UniProt P07477)
[11] = test system: human red blood cells (hRBC); test: Hemolysis
[12] = assay type: in vitro ADME; settings: 10 µM
Experimental: 405 μl of plasma/albumin solution were placed in a polypropylene (PP) tube and spiked with 45 μl of compound from a […] solution B, derived from 135 μl of PBS and 15 μl of 1 mM peptide in PBS, pH 7.4. 150 μl aliquots were transferred into individual wells of the 10 kDa filter plate (Millipore MAPPB 1010 Biomax membrane). For “0 minutes controls”: 270 μl of PBS were placed in a PP tube and 30 μl of stock solution B was added and vortexed. 150 μl of control solution were placed into one well of the filter plate and served as “filtered control”.
Further 150 μl of control solution were placed directly into a receiver well (reserved for filtrate) and served as “not-filtered control”. The entire plate including evaporation lid was incubated for 60 min at 37° C. Plasma samples (rat plasma: Harlan Sera lab UK, human plasma: Blutspendezentrum Zürich) were centrifuged at least for 2 h at 4300 rpm (3500 g) and 15° C. in order to yield 100 filtrate. For “serum albumin”-samples (freshly prepared human albumin: Sigma A-4327, rat albumin: Sigma A-6272, all at 40 mg/ml concentration in PBS) approximately 1 hour of centrifugation was sufficient. The filtrates in the receiver PP plate were analysed by LC/MS as follower follows: Column: Jupiter C18 (Phenomenex), mobile phases: (A) 0.1% formic acid in water and (B) acetonitrile, gradient: 5%-100% (B) in 2 minutes, electrospray ionization, MRM detection (triple quadrupole). The peak areas were determined and triplicate values were averaged. The binding was expressed in percent of the (filtered and not-filtered time point 0 min) control 1 and 2 by: 100−(100×T60/T0). The average from these values was then calculated.

SMILES	Cytotoxicity LC50/GI50 Hela cells (HELA cells (Acc57))	Cathepsin G at 100 μM % [1]	FXa at 100 μM % [2]	IC50 [3]	Thrombin at 100 μM % [4]	IC50 [5]	IC50 [6]	Chymotrypsin at 100 μM % [7]	Tryptase at 100 μM % [8]	Urokinase at 100 μM % [9]	Chymase at 100 μM % (Chymase, from human skin)	Trypsin at 100 μM % [10]	Hemolysis at 100 μM % [11]	Stability human Plasma t1/2 [12]	Stability rat Plasma t1/2 [12]
CCCCCCCC[C@@H]1NC(=O)[C@H](CO)NC(=O)[C@H](C)NC(=O)[C@H]([C@@H](C)O)NC(=O)[C@@H]2CSSC[C@H](NC(=O)[C@H](CCC(N)=O)NC(=O)[C@@H]3CCCN3C(=O)[C@@H]3CCCN3C1=O)C(=O)N[C@@H](Cc1ccc(O)cc1)C(=O)N1CCC[C@@H]1C(=O)N1CCC[C@H]1C(=O)N[C@@H](CCCC)C(=O)N2 [Ex. 81] (HELM PEPTIDE1{[Nle].C.T.A.S.[CCCCCCCC[C@H](N[*:1])C(=O)[*:2]].P.P.Q.C.Y.[dP].P}$PEPTIDE1,PEPTIDE1,2:R3-10:R3|PEPTIDE1,PEPTIDE1,1:R1-13:R2$$$V2.0)	58 µM	61.3 at 100%	8.7%	100 µM	13.1%	28 nM									
CC[C@H](C)[C@@H]1NC(=O)[C@@H]2CCCN2C(=O)[C@@H]2CCCN2C(=O)[C@H](CC(=O)O)NC(=O)[C@H](CO)NC(=O)[C@H](CCCCN)NC(=O)[C@H]([C@@H](C)O)NC(=O)[C@@H]2CSSC[C@H](NC1=O)C(=O)N[C@@H](CCCNC(=N)N)C(=O)N1CCC[C@@H]1C(=O)N1CCC[C@H]1C(=O)N[C@@H](C1CCCCC1)C(=O)N2 [Ex. 12] (HELM PEPTIDE1{[O=C([C@@H](N[*:1])C1CCCCC1)[*:2]].C.T.K.S.D.P.P.I.C.R.[dP].P}$PEPTIDE1,PEPTIDE1,2:R3-10:R3|PEPTIDE1,PEPTIDE1,1:R1-13:R2$$$V2.0)	59.3 µM		5%		11%	37000 nM	90 nM	28%	59.3%	12%	12%	97%			
CCCC[C@@H]1NC(=O)[C@H]([C@@H](C)O)NC(=O)[C@@H]2CSSC[C@H](NC(=O)[C@H]([C@@H](C)CC)NC(=O)[C@@H]3CCCN3C(=O)[C@@H]3CCCN3C(=O)[C@H](CC(=O)O)NC(=O)[C@H](CO)NC1=O)C(=O)N[C@@H](CCCNC(=N)N)C(=O)N1CCC[C@@H]1C(=O)N1CCC[C@H]1C(=O)N[C@@H]([C@@H](C)CC)C(=O)N2 [Ex. 22] (HELM PEPTIDE1{I.C.T.[Nle].S.D.P.P.I.C.R.[dP].P}$PEPTIDE1,PEPTIDE1,2:R3-10:R3|PEPTIDE1,PEPTIDE1,1:R1-13:R2$$$V2.0)	8 µM					> 100000 nM	55 nM	0%	3.8%	5.7%	98.8%	84. %	0%	300 min	300 min
CCCC[C@@H]1NC(=O)[C@@H]2CCCN2C(=O)[C@H]2CCCN2C(=O)[C@H](Cc2ccc(O)cc2)NC(=O)[C@H]([C@@H](C)O)NC(=O)[C@H](CCC(N)=O)NC(=O)[C@@H]2CCCN2C(=O)[C@@H]2CCCN2C(=O)[C@H]([C@@H](C)CC)NC(=O)[C@H](CO)NC(=O)[C@H](C)NC(=O)[C@H]([C@@H](C)O)NC(=O)[C@H](CCC(N)=O)NC1=O [Ex. 109] (HELM PEPTIDE1{[Nle].Q.T.A.S.I.P.P.Q.T.Y.[dP].P}$PEPTIDE1,PEPTIDE1,1:R1-13:R2$$$V2.0)		54.1 at 100%	5.6%	0.0138 µM	0%	33 nM					0.1%	0%			
